Source: patent publication US20100261246A1, “METHOD FOR INHIBITING TELOMERASE REACTION” (PANASONIC CORPORATION, priority 2009, published 2010)

What was measured:
[1] = system: G-quadruplex structure (human telomeric oligo DNA); experiment: Absorbance 480 to 800 nm of phthalocyanine mixed with G-quadruplex solutions; type: binding; details: for interaction with the G-quadruplex structure (absorption peak): 15 μM compound solution, 50 mM HEPES, 100 mM NaCl, pH7
Experimental: Hereinafter, the interaction between anionic phthalocyanines and various DNAs was studied in Examples 6, 7, 8 and 9. For this purpose, a solution containing a G-quadruplex structure, a solution including a single-stranded DNA, and a solution containing a double-stranded DNA were first prepared according to the following procedures.
A solution of 50 mM HEPES and 100 mM NaCl, pH7 (total volume: 100 μL) containing a single-stranded DNA consisting of a sequence of 5′-[…]-3′ (SEQ ID NO: 2; this sequence being similar to a sequence of a human telomere portion, and thus the DNA referred to as “human telomeric oligo DNA” hereafter) was incubated at 90° C. for 5 min, and thereafter cooled to 0° C. at a rate of temperature fall of 2° C./min, followed by finally incubating at 0° C. for 2 hrs.
The concentrations of the human telomeric oligo DNA contained in the solution were 0, 0.5, 2, 5, 10, 25, 50 and 100 μM.
The absolute values of the positive and negative peaks were maximized for the solution having the human telomeric oligo DNA concentration of 100 μM, and dropped in the order of 50, 25, 10, 5, 2 and 0.5 μM. […] Hereafter, G-quadruplex solutions prepared from the solutions having human telomeric oligo DNA concentrations of 100, 50, 25, 10, 5, 2 and 0.5 μM are referred to as G-quadruplex solutions A, B, C, D, E, F and G, respectively. On the other hand, the solution without the human telomeric oligo DNA contained therein is referred to as NC solution.
First, a solution of 50 mM HEPES and 100 mM NaCl, pH7 (total volume: 20 μL) containing 15 μM CuPC was prepared. Then, this CuPC solution was mixed with each of the G-quadruplex solutions C, D, E and F and the NC solution, and the absorbance of these liquid mixtures were measured at 480 to 800 nm.
First, a solution of 50 mM HEPES and 100 mM NaCl, pH7 (total volume: 20 μL) containing 15 μM NiPC was prepared. Then, this NiPC solution was mixed with each of the G-quadruplex solutions D, E, F and G, and the NC solution, and the absorbance of these liquid mixtures were measured at 480 to 800 nm.
First, a solution of 50 mM HEPES and 100 mM NaCl, pH7 (total volume: 20 μL) containing 15 μM PC was prepared. Then, this PC solution was mixed with each of the G-quadruplex solutions D, E, F and G, and the NC solution, and the absorbance of these liquid mixtures were measured at 480 to 800 nm.
First, a solution of 50 mM HEPES and 100 mM NaCl, pH7 (total volume: 20 μL) containing 15 μM CoPC was prepared. Then, this CoPC solution was mixed with each of the G-quadruplex solutions B, C, D and G, and the NC solution, and the absorbance of these liquid mixtures were measured at 480 to 800 nm.

double-stranded DNA = experiment: Absorbance 480 to 800 nm of phthalocyanine mixed with double-stranded DNA solution; type: binding; details: 15 μM compound solution, DNA 50 μM, pH7
Experimental: A solution of 50 mM HEPES and 100 mM NaCl, pH7 (total volume: 100 μL) containing a single-stranded DNA consisting of a sequence of 5′-AGAAGAGAAAGA-3′ (SEQ ID NO: 4) and a single-stranded DNA consisting of a sequence of 5′-TCTTTCTCTTCT-3′ (SEQ ID NO: 5) at each concentration of 50 μM was prepared, which was incubated at 90° C. for 5 min, and thereafter cooled to 0° C. at a rate of temperature fall of 2° C./min, followed by finally incubating at 0° C. for 2 hrs. Since the aforementioned two kinds of DNAs are complementary to one another, both DNAs form a double-stranded DNA in the solution as a result of the incubation (hereafter, the solution referred to as “double-stranded DNA solution”).
(§1) Next, the aforementioned CuPC solution and single-stranded DNA solution, and the aforementioned CuPC solution and double-stranded DNA solution were similarly mixed, respectively. And then the absorbance of these liquid mixtures was measured at 480 to 800 nm. FIG. 9(A) and FIG. 9(B) show the results of the measurement in the cases of the single-stranded DNA solution and the double-stranded DNA solution, respectively.
as §1, with “NiPC” for “CuPC”, “respectively;” for “respectively. And then”, “11(A)” for “9(A)”, “11(B)” for “9(B)”, “respectively. In each drawing, the result obtained when the NC solution was used is also shown together.” for “respectively.”
as §1, with “PC” for “CuPC”, “respectively;” for “respectively. And then”, “mixture” for “mixtures”, “13(A)” for “9(A)”, “13(B)” for “9(B)”, “respectively. In each drawing, the result obtained when the NC solution was used is also shown together.” for “respectively.”
as §1, with “CoPC” for “CuPC”, “respectively, and” for “respectively. And”, “15(A)” for “9(A)”, “15(B)” for “9(B)”, “respectively. In each drawing, the result obtained when the NC solution was used is also shown together.” for “respectively.”

single-stranded DNA = experiment: Absorbance 480 to 800 nm of phthalocyanine mixed with single-stranded DNA solution; type: binding; details: 15 μM compound solution, DNA 50 μM, pH7
Experimental: A solution of 50 mM HEPES and 100 mM NaCl, pH7 (total volume: 100 μL) containing a single-stranded DNA consisting of a sequence of 5′-[…]-3′ sequence (SEQ ID NO: 3) at a concentration of 50 μM was prepared, which was incubated at 90° C. for 5 min, and thereafter cooled to 0° C. at a rate of temperature fall of 2° C./min, followed by finally incubating at 0° C. for 2 hrs. The DNA in thus resulting solution was a single-stranded DNA even after the incubation (hereafter, the solution referred to as “single-stranded DNA solution”).
as §1
as §1, with “NiPC” for “CuPC”, “respectively;” for “respectively. And then”, “11(A)” for “9(A)”, “11(B)” for “9(B)”, “respectively. In each drawing, the result obtained when the NC solution was used is also shown together.” for “respectively.”
as §1, with “PC” for “CuPC”, “respectively;” for “respectively. And then”, “mixture” for “mixtures”, “13(A)” for “9(A)”, “13(B)” for “9(B)”, “respectively. In each drawing, the result obtained when the NC solution was used is also shown together.” for “respectively.”
as §1, with “CoPC” for “CuPC”, “respectively, and” for “respectively. And”, “15(A)” for “9(A)”, “15(B)” for “9(B)”, “respectively. In each drawing, the result obtained when the NC solution was used is also shown together.” for “respectively.”

[2] = system: TaKaLa LA Taq Hot Start Version (polymerase reaction); experiment: PCR control band in the separate telomerase reaction / PCR experiment; type: biochemical; details: 10 μM, no addition of λDNA
Experimental: (§2) Moreover, effects of inhibiting telomerase by TMPyP and anionic phthalocyanines were compared in Comparative Example 3 and Example 4 to 5 below. In these experiments, the S7700 kit was used similarly to the aforementioned Comparative Examples 1 to 2 and Examples 1 to 3. However, in Comparative Examples 1 to 2 and Examples 1 to 3 described above, the reagents required only for the telomerase reaction and PCR were all mixed first, and the telomerase reaction and PCR were carried out sequentially by regulating the reaction temperature. To the contrary, in the following Comparative Example 3 and Examples 4 to 5, only the reagents required for the telomerase reaction were first mixed to carry out a telomerase reaction, and a part of the reaction solution and the reagents required for the PCR were mixed to carry out the PCR.
(§3) Next, 4 μL of a solution prepared by diluting the solution after the telomerase reaction 20 times with milliQ water, 0.2 μL of 50× dNTP Mix, 0.2 μL of TS primer, 0.2 μL of Primer Mix, 0.1 μL of TaKaLa LA Taq Hot Start Version (manufactured by Takara Bio Inc.), 1 μL of 10× LA PCR buffer II (Mg^2+ plus) (buffer solution included in TaKaLa LA Taq Hot Start Version), and 4.3 μL of milliQ water were mixed to prepare a PCR solution in a total volume of 10 μL. Then, PCR was carried out by allowing this PCR solution to stand under temperature conditions in which a thermo cycle of: 30 sec at 95° C.; 30 sec at 59° C.; and 30 sec at 72° C. was repeated 30 times.
(§4) Finally, the solution after the PCR was electrophoresed on a 10% polyacrylamide gel, and stained with GelStar Nucleic Acid Stain (manufactured by Takara Bio Inc.). […] In the order from the leftmost lane, the results with final concentrations of TMPyP being 0 M, 0.1 μM, 0.3 μM, 1 μM, 3 μM and 10 μM are shown.

telomerase [3] = experiment: Telomerase reaction carried out first, then PCR of the diluted reaction solution, gel electrophoresis, with or without λDNA; type: biochemical; details: final concentrations 0.1 to 10 μM
Experimental: as §2
In addition, in each of the following Comparative Example 3 and Examples 4 to 5, experiments were carried out with or without addition of a λDNA in the telomerase reaction. Addition of the λDNA was intended to reproduce for mimicking the conditions in which a large amount of double-stranded DNAs are present as in the case of genomic DNAs in cells, and to study the effects of inhibiting telomerase by TMPyP or anionic phthalocyanines even under conditions more approximate to those in vivo, by adding a λDNA.
Telomerase reaction solution in a total volume of 10 μL were prepared by mixing 1 μL of 10× TRAP Reaction buffer, 0.2 μL of 50× dNTP Mix, 0.2 μL of TS primer, 4 μL of the telomerase solution prepared in Comparative Example 1, 2 μL of the TMPyP aqueous solution, and 2.6 μL of milliQ water (the reaction solutions having final TMPyP concentrations of 0 M, 0.1 μM, 0.3 μM, 1 μM, 3 μM and 10 μM were prepared, respectively). Then, the reaction solutions were stood under a condition of 30° C. for 60 min to allow a telomerase reaction to be carried out.
as §3, §4
On the other hand, experiments in which a λDNA was added to the telomerase reaction solution were also carried out. More specifically, in preparing the telomerase reaction solution described above, 2.6 μL of a λDNA solution (manufactured by Takara Bio Inc.) was mixed in place of mixing 2.6 μL of milliQ water. Other telomerase reaction temperature/time schedule, PCR solution preparation condition, PCR temperature/time schedule, electrophoresis condition were just the same.

TITANIUM Taq polymerase = experiment: PCR control (36-bp PCR amplification product) in S7700 kit one-mix reaction, Bioanalyzer 2100; type: biochemical; details: TMPyP concentration not less than 3 μM
Experimental: Therefore, TITANIUM […] polymerase (manufactured by Clontech Laboratories) was used in the present studies.
For example, it is highly probable that materials which nonspecifically bind to double-stranded DNAs inhibit PCR.
The S7700 kit includes a set of a template DNA and a primer for such ascertainment in the Primer Mix, and a 36-bp PCR amplification product is obtained from the set when the PCR is carried out.
Therefore, when the effect of a material expected to inhibit the telomerase reaction is verified using the S7700 kit, it is necessary to confirm that the telomerase reaction product is not detected in final results of electrophoresis, and that the 36-bp PCR product is normally amplified.
First, in accordance with the protocol of the kit, a telomerase solution was prepared from the attached control cell pellet. Next, a reaction solution in a total volume of 20 μL was prepared by mixing 2 μL of 10× TRAP Reaction buffer, 0.4 μL of 50× dNTP Mix, 0.4 μL of TS primer, 0.4 μL of Primer Mix, 0.4 μL of TITANIUM Taq polymerase, 14.8 μL of milliQ water (purified water), and 1.6 μL of the telomerase solution prepared as described above.
Subsequently, the telomerase reaction was allowed by standing this reaction solution under a condition of 30° C. for 30 min. Thereafter, PCR was carried out by repeating 33 times a thermo cycle of: 30 sec at 94° C.; 30 sec at 59° C.; and 1 min at 72° C. […]

telomerase [4] = experiment: Telomerase activity measurement with S7700 kit, telomerase reaction and PCR carried out sequentially in one mix, ladder peaks by Bioanalyzer 2100; type: biochemical; details: 1.1 μM of TMPyP added
Experimental: In this experiment, comparative studies of effects of inhibiting telomerase by an anionic phthalocyanine and cationic porphyrin (TMPyP) that is a conventionally known typical material having an effect of inhibiting telomerase were carried out using a kit for telomerase activity measurement manufactured by Millipore Corporation (TRAPEZE Telomeraze Detection Kit S7700).
TRAPEZE Telomeraze Detection Kit S7700 (hereinafter, merely referred to as S7700 kit) is a kit that includes 10× TRAP Reaction buffer, 50× dNTPs Mix, TS primer, Primer Mix, and a control cell pellet.
The TS primer is an oligo DNA consisting of 5′-[sequence]-3′, and serves as an initiation sequence of the telomerase reaction upon binding of telomerase, similarly to a human telomeric DNA sequence.
Therefore, the Primer Mix in the S7700 kit includes RP primer. This primer is an oligo DNA having a sequence complementary to the sequence elongated by the telomerase reaction, and thus, the telomerase reaction product can be amplified to a detectable level on electrophoresis by carrying out PCR using the aforementioned TS primer and the RP primer.
As described above, the telomerase reaction and PCR are carried out sequentially in the telomerase activity measurement using the S7700 kit. […]

| Compound | interaction with the G-quadruplex structure (absorption peak) [1] | interaction with the double-stranded DNA (absorption spectrum vs NC solution) (double-stranded DNA) | interaction with the single-stranded DNA (absorption spectrum vs NC solution) (single-stranded DNA) | amplification of the PCR control (band) [2] | inhibition of the telomerase reaction (band of telomerase reaction product) (telomerase [3]; in the presence of λDNA) | inhibition of the telomerase reaction (band of telomerase reaction product) (telomerase [3]; no addition of λDNA) | DNA concentration corresponding to the PCR control peak (TITANIUM Taq polymerase) | total DNA concentration corresponding to the ladder peaks in the reaction product (telomerase [4]) | elevation of the peaks in the range of 640 to 720 nm with G-quadruplex ([1]; compared with CuPC, NiPC or PC) |
| --- | --- | --- | --- | --- | --- | --- | --- | --- | --- |
| Phthalocyanine tetrasulfonic acid [PC] | an interaction occurred | an interaction did not occur | an interaction did not occur |  |  |  |  |  |  |
| C[n+]1ccc(-c2c3nc(c(-c4cc[n+](C)cc4)c4ccc([nH]4)c(-c4cc[n+](C)cc4)c4nc(c(-c5cc[n+](C)cc5)c5ccc2[nH]5)C=C4)C=C3)cc1 [TMPyP, reference compound] |  |  |  | became weaker | not inhibited at all | inhibited the telomerase reaction | not beyond the detection limit | 2.7 ng/µL |  |
| Zinc(II) phthalocyanine tetrasulfonic acid [ZnPC] | specifically interacted with a G-quadruplex structure |  |  |  |  |  |  |  |  |
| Cobalt(II) phthalocyanine tetracarboxylic acid [CoPC] | an interaction occurred | an interaction did not occur | an interaction did not occur |  |  |  |  |  | less than the resultant elevation when CuPC, NiPC or PC was used |
